For assay [1], the target named is BIR3 domain of human XIAP (residues 252-350) (Homo sapiens (Human), UniProt P98170). Briefly: XIAP in vitro competitive displacement binding assay (fluorescence polarization). The following applies: for inhibition at 0.04 µM: 1 h, read-out: IC50 or PI Xiap: PI; for IC50: read-out: IC50 or PI Xiap: IC50. Background: Fluorescence polarisation rises when a labelled molecule tumbles more slowly, as on binding a larger partner.

Assay [2] has as its target BIR3 domain of human cIAP-1 (residues 267-363) (Homo sapiens (Human), UniProt Q13490). Nature of the assay: cIAP-1 in vitro competitive displacement binding assay (fluorescence polarization; Probe A AVPIK(5&6FAM)-amide or Probe B AbuRPFK(5&6FAM)-amide).
The subject of assay [3] is EVSA-T (human breast carcinoma). Briefly: Anti-proliferative activity, Alamar Blue assay, EVSA-T. Format: cell-based. The settings on record: Homo sapiens, EVSA-T. (The colour change of resazurin is a common sign of viable cells or microbes.)
The mark [4] stands for this setting: 3 h, read-out: IC50 or PI cIAP1: PI.
Where [5] appears, read: 72 hours, Alamar Blue, read-out: EVSA-T prolif (EC50).
The mark [6] stands for this setting: read-out: IC50 or PI cIAP1: IC50.
The mark [7] stands for this setting: 72 h, read-out: EVSA-T prolif (EC50).
Setting [8] is: 3 h, Probe B, @ 0.012 μM, read-out: IC50 or PI cIAP1: PI.
The mark [9] stands for this setting: read-out: EVSA-T prolif: % inhibition.
Where [10] appears, read: Probe B AbuRPFK(5&6FAM)-amide, read-out: IC50 or PI cIAP1: IC50.

The source of these data is patent publication US9018214B2, “Bicyclic heterocycle compounds and their uses in therapy” (Astex Therapeutics Limited, priority 2011, dated 2015).

Where a name gives a salt, the structure may show the parent alone. Read-outs that look alike come from different tables or passages of the source. A value given as a limit tells only on which side of the number the result lay.

As to `C[C@@H]1CN(CC(=O)N2CC(C)(C)c3cnc(C(F)(F)c4ccccc4)cc32)[C@@H](CN2CC[C@@H](F)C2)CN1` [Example 213, 1-{6-[Difluoro(phenyl)methyl]-3,3-dimethyl-1H,2H,3H-pyrrolo[3,2-c]pyridin-1-yl}-2-[(2R,5R)-2-{[(3R)-3-fluoropyrrolidin-1-yl]methyl]-5-methylpiperazin-1-yl]ethan-1-one dihydrochloride], in assay [1], the inhibition at 0.04 µM is 61%. For the same molecule, the inhibition at […] in assay [2] (setting [4]) was determined as 82%. In addition, in assay [3] (setting [5]), the 50% effective concentration (EC50) was determined as 6 nM.

For the molecule `C[C@@H]1CN(CC(=O)N2CC(C)(C)c3ncc(C(F)(F)C4CCC4)cc32)[C@@H](CN2CCCC2=O)CN1` [Example 226, 1-{[(2R,5R)-1-{2-[6-(Cyclobutyldifluoromethyl)-3,3-dimethyl-1H,2H,3H-pyrrolo[3,2-b]pyridin-1-yl]-2-oxoethyl}-5-methylpiperazin-2-yl]methyl}pyrrolidin-2-one dihydrochloride], the IC50 in assay [1] was 46 nM; in assay [2], below 1000 nM; in assay [2] (setting [6]), 21 nM. The half-maximal effective concentration (EC50) in assay [3] (setting [7]) is 400 nM.

Regarding `C[C@@H]1CN(CC(=O)N2CC(C)(C)c3cnc(Cc4ccccc4F)cc32)[C@@H](CN2CCOC[C@H]2C)CN1` [Example 244, 1-{6-[(2-Fluorophenyl)methyl]-3,3-dimethyl-1H,2H,3H-pyrrolo[3,2-c]pyridin-1-yl}-2-[(2R,5R)-5-methyl-2-{[(3R)-3-methylmorpholin-4-yl]methyl}piperazin-1-yl]ethan-1-one hydrochloride], the inhibition at 0.04 µM in assay [1] (@ 0.04 μM) is 67%. In addition, the inhibition at […] in assay [2] (setting [8]) came out at 98%. The concentration for a half-maximal effect (EC50) in assay [3] (setting [5]) worked out at 2.2 nM.

On to `C[C@@H]1CN(CC(=O)N2CC(C)(C)c3ncc(C(F)(F)c4ccccc4)cc32)[C@@H](CN2CC[C@@H](F)C2)CN1` [Example 221, 1-{6-[Difluoro(phenyl)methyl]-3,3-dimethyl-1H,2H,3H-pyrrolo[3,2-b]pyridin-1-yl}-2-[(2R,5R)-2-{[(3R)-3-fluoropyrrolidin-1-yl]methyl}-5-methylpiperazin-1-yl]ethan-1-one dihydrochloride], for which the IC50 in assay [1] came to 73 nM. For the same molecule, the inhibition at […] in assay [2] (setting [4]) was 78%. Moreover, the EC50 in assay [3] (setting [7]) came out at 54 nM.

In the case of `C[C@@H]1CN(CC(=O)N2CC(C)(C)c3cnc(Cc4ccccc4)cc32)[C@@H](Cn2cccn2)CN1` [Example 112, 1-(6-Benzyl-3,3-dimethyl-2,3-dihydro-pyrrolo[3,2-c]pyridin-1-yl)-2-((2R,5R)-5-methyl-2-pyrazol-1-ylmethyl-piperazin-1-yl)-ethanone], the IC50 in assay [1] stood at 67 nM. For the same molecule, in assay [2] (3 h, Probe B, @ 0.01 μM, read-out: IC50 or PI cIAP1: PI), the inhibition at 0.01 µM came out at 69%. In addition, the EC50 in assay [3] (setting [5]) is 95 nM.

With `COC[C@H]1CN[C@H](C)CN1CC(=O)N1CC(C)(C)c2cnc(-c3ccsc3)cc21` [Example 126, 1-[3,3-Dimethyl-6-(thiophen-3-yl)-1H,2H,3H-pyrrolo[3,2-c]pyridin-1-yl]-2-[(2R,5R)-2-(methoxymethyl)-5-methylpiperazin-1-yl]ethan-1-one dihydrochloride], the IC50 came out at 380 nM in assay [1] and 86 nM in assay [2] (setting [6]). Moreover, the concentration giving a half-maximal response (EC50) in assay [3] (72 h, read-out: EC50, inhibition of cell growth) is below 10000 nM; in assay [3] (setting [7]) it was 1800 nM.

Take `C[C@@H]1CN(CC(=O)N2CC(C)(C)c3c[n+]([O-])c(Cc4ccc(F)cc4F)cc32)[C@@H](C(=O)N(C)C)CN1` [Example 167, (2R,5R)-1-(2-{6-[(2,4-Difluorophenyl)methyl]-3,3-dimethyl-5-oxo-1H,2H,3H-1,5λ^5-pyrrolo[3,2-c][1λ^5]pyridin-1-yl}-2-oxoethyl)-N,N,5-trimethylpiperazine-2-carboxamide hydrochloride]: the IC50 in assay [1] was 100 nM. The inhibition at […] in assay [2] (setting [8]) was determined as 84%. The concentration for a half-maximal effect (EC50) in assay [3] (setting [5]) amounted to 260 nM.

Turning to `C[C@@H]1CN(CC(=O)N2CC(C)(C)c3ncc(Cc4ccc(F)cc4)cc32)[C@@H](CN2C[C@@H](C)O[C@@H](C)C2)CN1` [Example 243, 2-[(2R,5R)-2-{[(2R,6S)-2,6-Dimethylmorpholin-4-yl]methyl}-5-methylpiperazin-1-yl]-1-{6-[(4-fluorophenyl)methyl]-3,3-dimethyl-1H,2H,3H-pyrrolo[3,2-b]pyridin-1-yl}ethan-1-one dihydrochloride], the IC50 in assay [1] came out at 47 nM. The inhibition at […] in assay [2] (setting [4]) amounted to 100%. The EC50 in assay [3] (setting [7]) is 25 nM.

Consider `C[C@@H]1CN(CC(=O)N2CC(C)(C)c3ccc(Cl)cc32)[C@@H](CO)CN1` [Example 40, 1-(6-Chloro-3,3-dimethyl-2,3-dihydro-indol-1-yl)-2-((2R,5R)-2-hydroxymethyl-5-methyl-piperazin-1-yl)-ethanone hydrochloride salt], for which the IC50 was 960 nM in assay [1]; below 1000 nM in assay [2]; 820 nM in assay [2] (Probe A AVPIK(5&6FAM)-amide, read-out: IC50 or PI cIAP1: IC50). Also, in assay [3] (setting [9]), the inhibition at 10 µM was determined as 45%.

With `C[C@@H]1CN(CC(=O)N2CC(C)(c3ccccc3)c3ccc(C#N)cc32)[C@@H](Cn2cccn2)CN1` (stereo partly drawn) [Example 143, 3-Methyl-1-{2-[(2R,5R)-5-methyl-2-(1H-pyrazol-1-ylmethyl)piperazin-1-yl]acetyl}-3-phenyl-2,3-dihydro-1H-indole-6-carbonitrile hydrochloride], the results for the IC50 in assay [1] and in assay [2] (setting [10]) were 100 nM and 200 nM, respectively. Besides, the EC50 in assay [3] (setting [5]) came to 8800 nM.

Take `COC[C@H]1CN[C@H](C)CN1CC(=O)N1CC(C)(C)c2cnc(C#N)cc21` [Example 103, 1-{2-[(2R,5R)-2-(Methoxymethyl)-5-methylpiperazin-1-yl]acetyl}-3,3-dimethyl-1H,2H,3H-pyrrolo[3,2-c]pyridine-6-carbonitrile]: the results for the IC50 in assay [1], in assay [2] and in assay [2] (setting [6]) were 420 nM, below 1000 nM and 870 nM, respectively. Moreover, the inhibition at 10 µM in assay [3] (setting [9]) was 12%.

For the molecule `C[C@@H]1CN(CC(=O)N2CC(C)(C)c3cnc(Cc4ccc(F)cc4F)cc32)[C@@H](CN2CCOCC2)CN1` [Example 219, 1-{6-[(2,4-Difluorophenyl)methyl]-3,3-dimethyl-1H,2H,3H-pyrrolo[3,2-c]pyridin-1-yl}-2-[(2R,5R)-5-methyl-2-(morpholin-4-ylmethyl)piperazin-1-yl]ethan-1-one dihydrochloride], the IC50 in assay [1] was 53 nM. Moreover, the inhibition at […] in assay [2] (setting [4]) amounted to 93%. In assay [3] (setting [7]), the 50% effective concentration (EC50) came to 5 nM.

For `COC[C@H]1CN[C@H](C)CN1CC(=O)N1CC(C)(C)c2cnc(Cc3ccccc3Cl)cc21` [Example 78, 1-{6-[(2-Chlorophenyl)methyl]-3,3-dimethyl-1H,2H,3H-pyrrolo[3,2-c]pyridin-1-yl}-2-[(2R,5R)-2-(methoxy-methyl)-5-methyl-piperazin-1-yl]ethan-1-one hydrochloride salt], the results for the IC50 in assay [1] and in assay [2] (setting [10]) were 530 nM and 35 nM, respectively. For the same molecule, in assay [3] (setting [5]), the EC50 is 1900 nM.

For `C[C@@H]1CN(CC(=O)N2CC3(Cc4ccccc4C3)c3ccc(Cl)cc32)[C@@H](Cn2cccn2)CN1` [Example 142, 1-{6′-Chloro-1,1′,2′,3-tetrahydrospiro[indene-2,3′-indole]-1′-yl}-2-[(2R,5R)-5-methyl-2-(1H-pyrazol-1-ylmethyl)piperazin-1-yl]ethan-1-one hydrochloride], the half-inhibitory concentration (IC50) is 220 nM in assay [1] and 150 nM in assay [2] (setting [10]). Also, the inhibition at 1 µM in assay [3] (at 1 μM, read-out: EVSA-T prolif: % inhibition) is 20%.

By EC50 is commonly meant the concentration needed to bring the measured effect to its halfway point. The term IC50 denotes the midpoint of a concentration-inhibition curve.
